Experimental data from patent US20050256077A1, “Gastrointestinal stem cells and uses thereof” (priority 2004, published 2005).

How the values were obtained:
intestinal crypts [1] = experiment: Model I: luminal delivery of cytotoxic drugs to clamped jejunal segment, crypt apoptosis by histology; format: in vivo, mouse; details: for apoptosis in experimental segments / apoptosis in upstream segments: luminal delivery to clamped jejunal segment for 4 hr, 20 mg/kg BW; for apoptosis in experimental segments: apoptotic bodies in H & E sections; for apoptosis in upstream segments: segment immediately upstream
From the text: A surgical model was developed that is simple and rapid enough to allow appropriate numbers of animals to be studied in a reasonable time period. To this end, a procedure was developed in which a 1 cm piece of jejunum is flushed and then clamped (with microvascular serrefines), the drug or vehicle was delivered to the clamped segment via a 27 gauge needle, the bowel is returned to the abdominal cavity and the incisions in both the peritoneum and the skin are sutured closed. The animal was allowed to regain consciousness for 4-6 hr. At the end of this time there was another brief isofluorane anesthesia, during which the original incisions are opened and the clamps are removed. In addition, at this time the location of the clamps was indicated by a piece of 5-0 silk.
Various doses of DOX and Bleomycin were delivered to clamped segments for 4 hr, then tissue from the experimental segment as well as a segment immediately upstream was collected for histology. Tissue sections were stained with H & E, and apoptosis was assessed by the presence of apoptotic bodies. For quantifying apoptotic cells, 10 crypts per animal (n=3) were selected and scored by a skilled artisan blinded to the experimental conditions. […] Thus, Bleomycin was being absorbed into the circulation and, thus, affecting the entire intestine. In contrast, DOX appears to be capable of local action, thus creating a suitable model for subsequent experiments.
In order to verify that luminally delivered DOX was affecting the stem cell region, the position of apoptotic cells within the crypt was scored. […] This is very similar to the pattern that has been previously reported following IP delivery of DOX (Ijiri and Potten, 1987).

intestinal crypts [2] = format: in vivo, mice
Protocol: The following model is preferable for luminal delivery of stem cell preparations, particularly wherein a second clamping procedure, such as the day after the damage, is preferable. As there are already published studies on IP delivery of DOX to mice (Ijiri and Potten, 1987; Moore, 1985), minimal additional studies were needed to establish this model. However, although it was already known that an IP dose of 20 mg/kg/BW DOX elicits apoptosis predominantly in the stem cell zone (Ijiri and Potten, 1987) and ablates approximately 50% of the stem cells (Moore, 1985), a complete time course of apoptosis has not been reported. Considering the nature of the timing of stem cell delivery, an apoptosis time course was performed in FIG. 6. […] In contrast, gross morphologic damage is not seen until 72 hr and appears maximal by 96 hr (FIG. 7). By 120 hr the beginning of crypt regeneration from the remaining stem cells is apparent (not shown). Based on these findings, after DOX the optimal time for luminal delivery of stem cells is 6 hr. […] At the same time, a significant proportion of the endogenous stem cells have been ablated, creating an opportunity for the exogenous cells to engraft. The clamping procedure after IP delivery of DOX has been performed successfully, and no evidence was found of gross bleeding into the clamped segment. There is, however, significant morbidity after the IP DOX. For example, body weights initially fall to a similar extent to that after luminal DOX, but in the case of IP DOX they never recover. Although our 10-day survival data after IP DOX is 100%, the literature predicts 40-50% mortality over the next 2 weeks (Oredipe et al., 2003). However, if the myelosuppressive effects of DOX are countered by administration of the drug Swainsonine (Sigma-Aldrich), for example the mice can be maintained until at least 70 days with only 36% mortality (Oredipe et al., 2003).

[3] = system: crypts of the mouse small intestine; details: cited from earlier work; for i.p. dose that causes sterilization of 50% of crypts: dose-response data of Moore (1985)
[4] = cited from earlier work
[5] = mouse, in vivo; cited from earlier work
[6] = cited from earlier work; remark: listed apart in the source
[7] = cited from earlier work; remark: listed apart in the source
i.p. LD50 (literature) = format: in vivo; details: mice
[8] = mice; cited from earlier work
bone marrow = details: administered systemically (Goodman and Gilman, 1975); cited from earlier work

COc1cccc2c1C(=O)c1c(O)c3c(c(O)c1C2=O)C[C@@](O)(C(=O)CO)C[C@@H]3O[C@H]1C[C@H](N)[C@H](O)[C@H](C)O1 [DOX, doxorubicin]
damage to the basement membrane or to the underlying stromal tissue (intestinal crypts [1]; luminal DOX, light and EM levels): no evidence of damage
apoptosis in experimental segments (intestinal crypts [1]): significant apoptosis
apoptosis in upstream segments (intestinal crypts [1]): minimal effects
time of apoptosis peak (intestinal crypts [2]; IP DOX 20 mg/kg BW): 6 h
time of beginning of crypt regeneration from remaining stem cells (intestinal crypts [2]; IP DOX 20 mg/kg BW): ≤ 120 h
time of maximal gross morphologic damage (intestinal crypts [2]; IP DOX 20 mg/kg BW): ≤ 96 hr
time until gross morphologic damage is seen (intestinal crypts [2]; IP DOX 20 mg/kg BW): 72 hr
apoptosis by 24 hr (intestinal crypts [2]; IP DOX 20 mg/kg BW, 24 hr): greatly reduced
body weights (intestinal crypts [2]; mouse, in vivo, ip): never recover
10-day survival (intestinal crypts [2]; mouse, in vivo, ip, 10 day): 100%
small intestinal crypts sterilized ([3]; IP 20 mg/kg BW (Moore, 1985)): approximately 50%
stem cells ablated ([3]; IP dose of 20 mg/kg/BW (Moore, 1985)): approximately 50%
i.p. dose that causes sterilization of 50% of crypts [3]: 15 mg/kg
removed by the liver in a single pass [4]: 60%
half-life [5]: 35 min
solubility in normal saline [6]: soluble in normal saline
mortality over the next 2 weeks ([7]; after IP DOX, beyond 10 days, literature prediction): 40-50%

O[C@H]1[C@H]2[C@H](O)CCCN2C[C@H]1O [Swainsonine]
mortality until at least 70 days ([7]; Swainsonine given to counter myelosuppressive effects of DOX): 36%

Bleomycin
apoptosis in experimental segments (intestinal crypts [1]): caused apoptosis
apoptosis in upstream segments (intestinal crypts [1]): caused apoptosis in both experimental segment and upstream segments
i.p. LD50 relative to i.p. dose causing sterilization of 50% of intestinal crypts (i.p. LD50 (literature)): ~4 fold
i.p. dose that causes sterilization of 50% of crypts [3]: 60 mg/kg
i.p. LD50 [8]: 210 mg/kg
solubility in normal saline [6]: soluble in normal saline
toxicity to bone marrow (bone marrow): minimal toxicity to bone marrow
